Source: BindingDB's records for doi:10.1016/j.chembiol.2007.12.010 (Brandeis University, 2008)

Tests used:
Experiment in all cases: Enzyme Inhibition Assay
Details in all cases: pH 8; 25 °C
[1] = biological target: Inosine-5'-monophosphate dehydrogenase 1 (Homo sapiens, UniProt P20839)
Text: (§1) Enzyme inhibition assay using recombinant human IMPDH1 and IMPDH2 and C.parvum were expressed in guaB strains of escherichia coli.

[2] = biological target: Inosine-5'-monophosphate dehydrogenase 2 (Homo sapiens, UniProt P12268)
Text: as §1

[3] = biological target: T1, Inosine-5-monophosphate dehydrogenase (Cryptosporidium parvum, UniProt Q5CPK7)
T1 sequence (Q5CPK7 whole entry): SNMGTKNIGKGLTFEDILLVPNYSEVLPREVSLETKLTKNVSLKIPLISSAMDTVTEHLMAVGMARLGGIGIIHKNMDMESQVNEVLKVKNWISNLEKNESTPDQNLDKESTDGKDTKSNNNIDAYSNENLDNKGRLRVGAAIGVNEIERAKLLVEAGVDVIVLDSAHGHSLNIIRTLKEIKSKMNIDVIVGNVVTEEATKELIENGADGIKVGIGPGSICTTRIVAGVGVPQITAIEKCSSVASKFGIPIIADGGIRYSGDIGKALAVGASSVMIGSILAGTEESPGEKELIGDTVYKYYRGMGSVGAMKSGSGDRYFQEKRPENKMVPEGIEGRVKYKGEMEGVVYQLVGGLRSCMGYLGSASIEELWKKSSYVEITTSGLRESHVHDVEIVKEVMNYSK
Text: as §1

Sequence of Inosine-5'-monophosphate dehydrogenase 1 (P20839 whole entry): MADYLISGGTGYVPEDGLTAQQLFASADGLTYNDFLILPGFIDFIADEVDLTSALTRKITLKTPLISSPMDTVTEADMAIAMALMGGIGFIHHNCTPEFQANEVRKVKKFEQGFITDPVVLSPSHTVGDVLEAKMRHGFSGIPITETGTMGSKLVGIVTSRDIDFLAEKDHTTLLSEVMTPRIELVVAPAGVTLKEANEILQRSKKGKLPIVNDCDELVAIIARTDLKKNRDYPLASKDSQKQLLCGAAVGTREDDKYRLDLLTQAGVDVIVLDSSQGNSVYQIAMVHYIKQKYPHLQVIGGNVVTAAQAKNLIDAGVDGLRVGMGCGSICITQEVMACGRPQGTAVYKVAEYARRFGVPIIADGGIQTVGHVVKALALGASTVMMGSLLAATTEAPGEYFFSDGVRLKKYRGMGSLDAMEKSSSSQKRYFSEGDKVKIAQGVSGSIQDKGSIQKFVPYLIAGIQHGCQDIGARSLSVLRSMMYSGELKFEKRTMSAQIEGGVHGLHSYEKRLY

COC(=O)c1c(C)c(=O)[nH]c2ccccc12 [methyl 3-methyl-2-oxo-1,2-dihydroquinoline-4-carboxylate, Compound E]
IC50 [1]: > 25 µM | IC50 [2]: > 25 µM | IC50 [3]: 1.6 µM

O=c1[nH]c2ccc(Oc3ccc4[nH]c(=O)c(=O)[nH]c4c3)cc2[nH]c1=O [Tetrahydroquinoxalin analog, J]
IC50 [1]: > 50 µM | IC50 [2]: > 50 µM | IC50 [3]: 5.9 µM

O=C(N/C=N\c1cccnc1)C1COc2ccccc2O1 (configuration not stated) [N-[(Z)-N-(pyridin-3-yl)carboximidoyl]-2,3-dihydro-1,4-benzodioxine-2-carboxamide, K]
IC50 [1]: > 500 µM | IC50 [2]: > 500 µM | IC50 [3]: 19 µM

CC(Oc1ccccc1)C(=O)Nc1ccc(Cl)cc1 (configuration not stated)
IC50 [1]: > 50 µM | IC50 [2]: > 50 µM | IC50 [3]: 3.3 µM
